Data from patent publication US20220252625A1, “TREATMENT AND DIAGNOSIS OF CHRONIC INFLAMMATORY CONDITIONS IN THE LOWER URINARY TRACT” (SELECTIMMUNE PHARMA AB, priority 2019, published 2022).
Entries after “also recorded” stand apart in the source; their conditions may differ.

How the values were obtained:
Assay type in all cases: in vivo, human
[1] = test system: patients with chronic pelvic pain syndrome (CPPS); assay: Investigator driven open trial, ten CPPS patients: symptoms, quality of life, side effects
Method: Here we identify that IL-1RA treatment may be useful to alleviate bladder pain. The hypothesis was evaluated by enrolling ten patients with chronic pelvic pain syndrome, (CPPS) in an investigator driven open trial (see below and FIG. 7). The patients received daily anakinra treatment (100 mg) until a stable response was observed. Treatment was then transiently interrupted and when the symptoms returned, treatment was resumed. Patient 10 remained asymptomatic.
Ten patients with a long history of CPPS were enrolled after informed consent (age, gender, disease profile) and instructed to fill in a questionnaire detailing frequency of urination, pain, frequency of pain medication and quality of life.
(§1) A significant reduction in pain, urgency and frequency of urination was recorded in 9/10 patients (FIGS. 7c, 7d and 7e). Laboratory samples were obtained at diagnosis, after the initiation of anakinra treatment (n=10), during the “treatment break” and after continuation of anakinra treatment (n=9). Urine neuropeptides involved in the pain response (Substance P) were inhibited, with a biphasic response following the symptom score (FIG. 7f).

[2] = test system: WBC and Interleukins (IL6, IL8 and IL1b) in urine; assay: Nine-patient study: estimated WBC and Interleukins in urine; details: prior, during or after treatment
Excerpt: The effect of anakinra in the treatment of CPPS was studied in a clinical study. Inclusion criteria were CPPS mainly with the Bladder Pain phenotype, but also the with the Urethral and Prostate Pain phenotype. Exclusion criteria were uncontrolled diabetes mellitus, treatment for malignant disease within the preceding 10 years, pregnancy and age <18 years and ongoing infectious diseases, including urinary tract infections, and neutropenia (<1.5×10^9/L). Patients gave informed consent for the use of unidentified personal clinical data for research purposes. Included patients were examined using clinical standard methods to rule out any ongoing disease. Blood and serum for hemoglobulin, liver and kidney function tests and White Blood Cell (WBC) counts were analysed. Urine was obtained for dip stick test (leukocytesteras for WBC estimation, the nitur test for ruling out bacteriuria), standard urinary Interleukins (IL6, IL8 and IL1b) and for urine culture. Cystoscopy and CT urography were performed in all patients. Blood and serum analysis and cystoscopy were repeated approximately two weeks after the start of treatment, and after approximately three months. Nine patients were recruited (Table 2).

Substance P = assay: Ten-patient CPPS trial: urine neuropeptides; details: P<0.001
Method: as §1

[3] = test system: neuroinflammation and IL-1-dependent gene expression; assay: Ten-patient CPPS trial: gene expression analysis of peripheral blood RNA
Excerpt: Blood samples for DNA- and RNA-analyses as well as urine samples for proteomics are obtained throughout the study.

[4] = test system: neuro-inflammation, TLR dependent pattern recognition and IL-1 signaling; IL-1R1 dependent gene network; assay: BPS trial: transcriptomic analysis of peripheral blood RNA; details: for gene expression, words: peripheral blood RNA
Excerpt: a) Schematic of the study protocol. Ten patients with a long history of BPS (ref EAU guidelines) were enrolled after informed consent and instructed to fill in a questionnaire detailing frequency of urination, pain, frequency of pain medication and quality of life. Laboratory samples were obtained at diagnosis, after the initiation of Kineret treatment (n=10), during the “treatment break” and after continuation of Kineret treatment (n=9). Neuropeptides involved in the pain response (Substance P) were quantified in urine. Peripheral blood RNA was subjected to genome wide transcriptomic analysis to define molecular effects of Kineret treatment.
To further understand the molecular basis of these effects, gene expression was analyzed longitudinally in RNA samples obtained; at onset, when the patients were in pain; at the time of maximum treatment effect in the first round; when pain returned during the treatment break; after reintroduction of Anakinra and at follow up, after 1-2 years of treatment. […] Due to the pronounced effect on IL-1 related genes, we further investigated a gene network downstream of IL-1R1. In 8 out of 10 patients a marked reduction in IL-1R1 dependent gene expression was detected, primarily genes including CXCL1, IL1RAP CXCL3 and the IL1R1 gene itself.

IL-1β = assay: Urine IL-1β concentration, patients with chronic cystitis; details: FIG. 5
Method: Samples: Blood and urine samples for investigation of inflammatory processes as well as genetic and proteomic analyses.
For evaluation of the levels of systemic and local inflammatory processes, analyses of CRP, neutrophil count and Interleukins are performed in serum and urine.
To be able to define a treatment group where anakinra might serve as an effective therapeutic option, we searched for urine biomarkers. In addition to patient urine samples, samples were collected from healthy controls to compare urine concentrations of IL-1β and Substance P (SP). […] In contrast, SP concentrations was increased in patients during maximum symptoms (209 vs 75 pg/ml, P=0.003), indicating a biomarker for bladder inflammation (FIG. 2).

## anakinra: interleukin-1 receptor antagonist (r-metHuIL-1ra) produced in Escherichia coli; recombinant, slightly modified version of the human interleukin-1 receptor antagonist protein
[1]; P<0.01
  symptom score (pain and frequency), words: reduction in symptom score
[1]; P<0.02
  quality of life, words: increase in quality of life
[1]; daily 100 mg, ten CPPS patients
  patients with dramatic clinical effects: 9/10
[1]; range over patients
  duration of symptom relief: 0.5 to 8 days
  time to symptom relief after the first dose: 1 to 6 h
[1]; ten CPPS patients
  patients with significant reduction in pain, urgency and frequency of urination: 9/10
[1]; ten CPPS patients, 100 mg
  side effects: Two patients reported local irritation at the injection site; also recorded: one patient developed neutropenia
[2]
  estimated WBC and Interleukins in urine, words: not significantly increased
Substance P
  urine neuropeptide (Substance P) levels, words: markedly reduced; also recorded: inhibited
[3]
  gene expression at the RNA level, words: inhibited neuroinflammation and IL-1-dependent gene expression; also recorded: reduction in neuro-inflammation
[4]; genes including CXCL1, IL1RAP, CXCL3, IL1R1
  patients with marked reduction in IL-1R1 dependent gene expression: 8 out of 10
[4]
  gene expression, words: inhibited by treatment
[4]; listed as Kineret
  gene expression, words: inhibited
IL-1β
  urine IL-1β levels after Anakinra treatment: do not change
